These results are taken from patent US20120034162A1, “Fullerene Assisted Cell Penetrating Peptides” (William March Rice University, priority 2006, published 2012).

Primed or numbered codes have the meaning given here. Ends that are not written are not given here. Baa″ = fullerene (C60, Bucky) amino acid derivative of phenylalanine; Baa = not defined here

Data set [1] is described as follows: Antioxidant properties (IC50 determined by Csixty Inc. through an established method). The format is biochemical. From the text: A plot of inhibition as a function of concentration for peptide 27 is shown in FIG. 18 with a comparison of Baa and Trolox. […] It is unclear at the present time the reason for the slight reduction in activity between Baa and Baa-Glu-Glu-Glu-Glu-Gly-Gly-Gly-Ser-OH. Given that the peptide's aggregation in aqueous solution presumably results in the “Glu-Glu-Glu-Glu-Gly-Gly-Gly-Ser-OH” being exposed to the solution, the sequence could act as a buffer limiting electron transfer processes.

The nature of data set [2]: Peptide aggregation, particle size in solution by dynamic light scattering (DLS). Type of data set: physicochemical. To be noted: PBS buffer. As for the experimental part:
(§1) Rink amide and Wang resin were obtained from Novabiochem, USA. Amino acids were purchased from Novabiochem and used as received. MALDI-TOF mass analysis was performed on a linear Protein-TOF Bruker instrument using sinipinic acid as the matrix. CD spectra were obtained on a Jasco J-700 dichrometer using 1 mm path-length quartz cells. Peptide solutions were 1.0 mg·mL^−1 solution in milliQ H2O or PBS buffer. In the case of peptides (21, 22 and 23), the pH was first adjusted to 10 to break up any aggregations and then adjusted by addition of 0.1 mM HCl until the desired pH was obtained. CD spectra were recorded in millidegrees and converted to residual molar ellipticity. TEM measurements were performed on a JEOL 2010 TEM at 200 kV. DLS Measurements were performed on the samples using an Brookhaven 90Plus submicron particle-size analyzer with HeNe laser (30 mW) that operates at […] wavelength.
With reference back to Table 1, in order to understand the intracellular transport of the FITC functionalized Baa-peptides, 25 and Baa-Lys(FITC)-NLS (26), their particle size in solution was determined by dynamic light scattering (DLS). Three series of solutions of 24, 25 and 26 in the range of 0.125-2.0 mg/mL was prepared by weighing method. PBS buffer prepared from HPLC grade water was used as solvent and was filtered through a […] cup filter (Millipore, Express).

Data set [3] relates to MDA-MB neoroblastoma cells. In words: Cellular proliferation, CCK-8 assay. Type of data set: cell-based. To be noted: 48 h. As for the experimental part: (§2) Cellular proliferation studies. Cancer cells at 5×10^4 cells/well were plated in triplicate in standard flat-bottomed 96-well tissue culture plates in the presence of fullerene peptides in PBS buffer with a final volume of 100 μL. Unless otherwise indicated, cells were grown for 48 h at 37° C. in a CO2 incubator. Relative cell growth was determined by Cell Counting Kit-8 (CCK-8) cell proliferation assay as described by the manufacturer using an automated plate reader. Results were calculated in a blinded fashion and are the means of bi or triplicate determinations.
A similar comparison has been made with MDA-MB neoroblastoma cells (FIG. 25) using H-Baa-Lys(FITC)-NLS (26), Baa-Penetratin (29) and Baa-Glu-Glu-Glu-Glu-Gly-Gly-Gly-Ser-OH (27). […] Given that both H-Baa-Lys(FITC)-NLS and Baa-Penetratin are cationic peptides which are readily taken up by the cells the cell inhibition cannot be a function of the uptake (i.e., intracellular concentration), but must also be dependent on the sequence.
In general terms: Formazan colour is commonly taken as a measure of viable cells.

Data set [4] deals with MCF-7 breast cancer cells. In words: Cellular proliferation, CCK-8 assay. The format is cell-based. To be noted: MCF-7, 48 h, concentration given with value. Here is the method:
as §2
The effect of different Baa-peptide sequences on the cell viability of MCF-7 breast cancer cells was investigated to determine if the sequence has an effect rather than the presence of the C60. […] This is in agreement with the MTT cell viability test (see above). […] Clearly the sequence has a significant effect on the cell viability. However, it is worth noting that this may be due to either inherent differences in toxicity or differences in cellular uptake.

For another data set, the system named is IMR32 cancer cell line. In words: Cellular proliferation, CCK-8 assay. Type of data set: cell-based. Here is the method: Cellular proliferation studies. Cancer cells at 5×10^4 cells/well were plated in triplicate in standard flat-bottomed 96-well tissue culture plates in the presence of fullerene peptides in PBS buffer with a final volume of 100 μL. Unless otherwise indicated, cells were grown for 48 h at 37° C. in a CO2 incubator. Relative cell growth was determined by Cell Counting Kit-8 (CCK-8) cell proliferation assay as described by the manufacturer using an automated plate reader. Results were calculated in a blinded fashion and are the means of bi or triplicate determinations. […] This difference is possibly because the relative propensity of Baa-2HP to precipitate under acidic conditions is less than that of Baa-3HP. Thus, the formation of aggregates of Baa-3HP would cause the inhibition of cell growth. However, we cannot discount alternative factors such as the sequence and its overall charge differences. For example, the strength of the aggregate may be greater for Baa-3HP than Baa-2HP due to the stronger self-assembly forces in 3HP.

The nature of data set [5]: Peptide secondary structure (CD) and appearance (TEM) as a function of pH. The format is physicochemical. The settings on record: for Secondary structure with decreasing pH: CD spectra; for Appearance / diameter of non-fibrous particles: TEM; for diameter of non-fibrous particles: micelles at pH 4 (21), precipitate particles at pH 6 and lower (22). Here is the method: as §1
Control of peptide secondary structure by fullerene amino acids. In an effort to understand the effect of the C60 substituents on the secondary structure of a peptide we have investigated two sequences and the position within a particular sequence. The well characterized model heptad peptides Glu-Ile-Ala-Gln-Leu-Glu-Tyr-Glu-Ile-Ser-Gln-Leu-Glu-Gln-NH2 (2HP, 22 in Table 1) […]NH2 (3HP, 23 in Table 1) were chosen because they are known to form fibers at pH below 7 concomitant with β-sheet formation. To investigate the effects of the presence and C60 on the conformation of the peptide the model peptide 2HP was prepared in which either tyrosine was replaced by Baa (21 in Table 1) or Baa was added to the C-terminus (22 in Table 1). The C-terminus derivative 23 was also prepared for 3HP.

In the next data set the test system is HEK-293a cells. In words: Cellular uptake by fluorescence microscopy. Type of data set: cell-based, human. As for the experimental part: Cellular uptake. An immortalized human embryonic kidney epithelial cancer cell line was used in initial cellular uptake studies. HEK-293a cells were cultured in RMPI 1640 medium supplemented with 10% fetal bovine serum (FBS) in 5% CO2 and 37° C. humidified incubator. The medium was supplemented with penicillin (100 U·mL^−1), streptomycin (100 μg/mL), and glutamine (2 mM). For experiments and microscopy, cells were seeded at 1×10^4 cells per well on 6-well plates and grown for two days in RPMI supplemented with 10%. Cells were incubated with each peptide (40 μM) for 24 hrs at 37° C. After treatment, the cells were washed with RPMI supplemented with 10% FBS and phosphate buffered saline (PBS, 10 mM). Fluorescence was observed by a fluorescent microscope equipped with FITC and red filters.

Turning to `Cc1c(C)c2c(c(C)c1O)CCC(C)(C(=O)O)O2` (stereo not drawn) [Trolox, reference compound], the midpoint of inhibition in data set [1], the IC50, lay at 480 µM.
Baa-(Lys)8-OH [Peptide 24]: the “aggregate size, major (or single) component” value in data set [2] (0.125-2.0 mg/mL) is given as “ca. 200 nm”. Moreover, the “aggregate distribution, single broad aggregate” value in data set [2] (0.25-2.0 mg/mL) is listed as 50-350 nm.
As to “Baa-Arg-Gln-Ile-Lys-Ile-Trp-Phe-Gln-Asn-Arg-Arg-Met-Lys-Trp-Lys-Lys-OH (Baa-RQIKIWFQNRRMKWKK-OH; reading uncertain) [Peptide 29]”, the “inhibition of cell growth” value in data set [3] was “significant inhibition for solutions above 8-14 μM”; in data set [4], “significant inhibition effect at 31.4 μM”.
As to “Baa-Glu-Glu-Glu-Glu-Gly-Gly-Gly-Ser-OH ({Baa″}-EEEEGGGS-OH) [Peptide 27]”, the IC50 (in general, the concentration needed to halve the response being measured) in data set [1] was determined as 89 µM. The “antioxidant activity relative to Trolox” value in data set [1] (molar, from IC50) is recorded as “ca. five fold”. Further, the entries for the “inhibition of cell growth” value in data set [3] and in data set [4] were “significant inhibition for solutions above 8-14 μM” and “no cellular inhibition up to 57 μM”, respectively.
“Baa-Glu-Ile-Ala-Gln-Leu-Glu-Tyr-Glu-Ile-Ser-Gln-Leu-Glu-Gln-Glu-Ile-Gln-Ala-Leu-Glu-Ser-NH2 ({Baa″}-EIAQLEYEISQLEQEIQALES-NH2) [Peptide 23]”: the “inhibition of cell growth” value with IMR32 cancer cell line (IMR32, 100 μg·mL^−1 (29.4 μM)) is on record as “significant inhibition”; in data set [3] it was “no obvious inhibition”; in data set [4], “no obvious inhibition”. The “Secondary structure with decreasing pH” value in data set [5] is recorded as “α-helix coiled”. Further, the Appearance result in data set [5] is reported as “fibers”.
With “Baa-Glu-Ile-Ala-Gln-Leu-Glu-Tyr-Glu-Ile-Ser-Gln-Leu-Glu-Gln-NH2 ({Baa″}-EIAQLEYEISQLEQ-NH2) [Peptide 22]”, in the data set on IMR32 cancer cell line (IMR32, up to 37 μM), the “inhibition of cell growth” value was “no inhibition”. Moreover, the “inhibition of cell growth” value in data set [3] is “no obvious inhibition”. Further, the “inhibition of cell growth” value in data set [4] is reported as “no obvious inhibition”. Moreover, in data set [5], the “Secondary structure with decreasing pH” value is “random coil → α-helix”, the Appearance entry is recorded as “aggregates” and the “diameter of non-fibrous particles” value is on record as “approximately 20 nm”.
On to “Baa-Lys(FITC)-Glu-Glu-Glu-Glu-Gly-Gly-Gly-Ser-OH ({Baa″-Lys(FITC)}-EEEEGGGS-OH) [Peptide 28]”, for which the “uptake intensity in comparison with the cationic fullerene peptides” value with HEK-293a cells (same concentration, cell line not restated) is recorded as “greatly reduced”.
For “Glu-Ile-Ala-Gln-Leu-Glu-Baa-Glu-Ile-Ser-Gln-Leu-Glu-Gln-NH2 [Peptide 21]”, in data set [5], the “Secondary structure with decreasing pH” value is listed as “β-sheet”, the Appearance entry is “fibers^a” and the “diameter of non-fibrous particles” value is reported as 8-10 nm.
For “Glu-Ile-Ala-Gln-Leu-Glu-Tyr-Glu-Ile-Ser-Gln-Leu-Glu-Gln-Gln-Glu-Ile-Gln-Ala-Leu-Glu-Ser-NH2 (EIAQLEYEISQLEQQEIQALES-NH2) [Peptide 3HP, parent model heptad peptide without Baa, reference compound]”, in data set [5], the “Secondary structure with decreasing pH” value is on record as “random coil → α-helix” and the Appearance entry is recorded as “fibers”.
For “Glu-Ile-Ala-Gln-Leu-Glu-Tyr-Glu-Ile-Ser-Gln-Leu-Glu-Gln-NH2 (EIAQLEYEISQLEQ-NH2) [Peptide 2HP, parent model heptad peptide without Baa, reference compound]” the same measures were “random coil → α-helix → β-sheet” and “fibers”.
For the compound “Lys(FITC)-(Lys)8-OH [reference compound]”, the “cellular uptake / localization by fluorescence” value with HEK-293a cells (40 μM, 24 hrs, 37° C.) is “no uptake”. Further, in the data set with HEK-293a cells (HEK-293a cells), the “Active Cellular Uptake” value is given as “No”.
